Assay results published in article PMC10779248, “Investigation of the Potential of Selected Food-Derived Antioxidants to Bind and Stabilise the Bioactive Blue Protein C-Phycocyanin from Cyanobacteria Spirulina” (International Journal of Molecular Sciences, 2023).

How the values were obtained:
Assay type in all cases: binding
Settings in all cases: read-out: Ka (M^-1) (converted)
[1] = target: T1, C-phycocyanin (C-PC) (Limnospira platensis, UniProt P72508+P72509); test: fluorescence quenching titration (PCB emission, excitation […] nm); also near-UV CD, thermal shift of nearly […] °C; set-up: gene cpcA; native C-PC purified from Spirulina biomass, (αβ)3 trimer / (αβ)6 hexamer; with C-phycocyanin beta subunit (cpcB)
Target sequence in this assay (P72509 whole entry): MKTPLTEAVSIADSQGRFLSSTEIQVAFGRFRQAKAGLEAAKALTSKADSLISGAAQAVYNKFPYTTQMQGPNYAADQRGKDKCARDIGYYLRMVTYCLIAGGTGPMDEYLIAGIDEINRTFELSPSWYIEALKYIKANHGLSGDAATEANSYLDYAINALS
Target sequence in this assay (P72508 whole entry): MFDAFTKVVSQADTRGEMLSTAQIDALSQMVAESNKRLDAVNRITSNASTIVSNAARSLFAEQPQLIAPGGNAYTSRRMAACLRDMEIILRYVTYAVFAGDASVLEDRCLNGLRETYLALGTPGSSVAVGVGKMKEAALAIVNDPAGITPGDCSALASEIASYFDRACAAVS

[2] = target: T1, C-phycocyanin (C-PC); test: fluorescence quenching titration (PCB emission, excitation […] nm); also UV-VIS, near-UV CD, thermal shift of nearly […] °C; set-up: gene cpcB; native C-PC purified from Spirulina biomass, (αβ)3 trimer / (αβ)6 hexamer; with C-phycocyanin alpha subunit (cpcA)
Target sequence in this assay (P72508 whole entry): as above
Target sequence in this assay (P72509 whole entry): as the sequence (P72509 whole entry) above

[3] = target: T1, C-phycocyanin (C-PC); test: fluorescence quenching titration (PCB emission, excitation […] nm); also UV-VIS and near-UV CD; no change in Tm; set-up: gene cpcB; native C-PC purified from Spirulina biomass, (αβ)3 trimer / (αβ)6 hexamer; with C-phycocyanin alpha subunit (cpcA)
Target sequence in this assay (P72508 whole entry): as the sequence (P72508 whole entry) above
Target sequence in this assay (P72509 whole entry): as the sequence (P72509 whole entry) above

In the case of `COC1=C(OC)C(=O)C(C/C=C(\C)CC/C=C(\C)CC/C=C(\C)CC/C=C(\C)CC/C=C(\C)CC/C=C(\C)CC/C=C(\C)CC/C=C(\C)CC/C=C(\C)CCC=C(C)C)=C(C)C1=O` [coenzyme Q10], the Kd [1] is reported as 2.94 µM.

`O=c1c(O)c(-c2ccc(O)c(O)c2)oc2cc(O)cc(O)c12` [quercetin] was tested, and the Kd [2] was 2.7 µM.

In the case of `Oc1ccc(/C=C/c2cc(O)cc(O)c2)cc1` [resveratrol], the Kd [3] is reported as 4.55 µM.
